From patent US12628820B2, “Systems and methods for preservation of cells” (UNIVERSITY OF LOUISVILLE RESEARCH FOUNDATION, Inc., priority 2017, dated 2026)

How the values were obtained:
RBCs [1] = assay: Recovery of RBCs following freezing/thawing; assay type: cell-based, pig or human; settings: for cell recovery rate (structurally intact RBCs) after freezing/thawing: frozen at -80° C.
Description: (§1) In vitro experiments have been performed to validate the methods and systems described herein. Briefly, a 0.5 mL solution containing pig or human RBCs, 200 mM trehalose, and microbubbles was placed in a conical tube and sonicated with a 2.5-MHz clinical ultrasound probe for 70 seconds (Philips 4-1 on a Verasonics Vantage 64LE ultrasound imaging system). […] Following sonication, samples were dried (FIG. 5A-B), frozen at −80° C., or freeze-dried for 1 week. Upon thawing or rehydration, the percentage of structurally intact RBCs was counted (FIG. 6A-B). Cell recovery rates of up to 85% were achieved after freezing/thawing, compared to less than 40% without sonoporation. Cell recovery rates of up to 12% were achieved after freeze-drying/rehydration, compared to 0% without sonoporation. Although the recovery is still low, this was believed to be a significant result given that not a single RBC was recovered from freeze-dried samples that had not been treated with sonoporation. […] The microfluidic sonoporation device can further improve the recovery rates by enabling consistent and precise trehalose delivery to each cell. This device is also effective in processing RBCs for long-term preservation in a frozen or freeze-dried state.

RBCs [2] = assay: Recovery of RBCs 24 hours after sonoporation (toxicity); assay type: cell-based, pig or human; settings: 200 mM trehalose, microbubbles, 2.5-MHz ultrasound 70 seconds
Description: as §1

red blood cells = assay: Microscopy of dried red blood cells after rehydration; assay type: cell-based; settings: after loading with trehalose; confocal image
Description: FIG. 5A-B includes microscopic images of dried red blood cells without trehalose (A) and after loading with trehalose (B).
as §1

RBCs [3] = assay: Recovery of RBCs following freeze-drying/rehydration; assay type: cell-based, pig or human
Description: as §1

With `OC[C@H]1O[C@H](O[C@H]2O[C@H](CO)[C@@H](O)[C@H](O)[C@H]2O)[C@H](O)[C@@H](O)[C@@H]1O` [trehalose] the “cell recovery rate (structurally intact RBCs) after freezing/thawing” value (RBCs [1]; 200 mM trehalose with sonoporation) was “up to 85%”, the “recovery rate for frozen cells” value (RBCs [1]; after small changes to the cell media composition, frozen cells) was “above 85%” and the “cell recovery rate (structurally intact RBCs) after freezing/thawing” value (RBCs [1]; without sonoporation) was “less than 40%”. For the same molecule, the “cell recovery 24 hours after sonication” value (RBCs [2]) was > 95%, the “shape of dried blood cells after rehydration” value (red blood cells) was “maintain shape after rehydration” and the “cell recovery rate (structurally intact RBCs) after freeze-drying/rehydration” value (RBCs [3]; 200 mM trehalose with sonoporation, freeze-dried for 1 week) was “up to 12%”. The “recovery rate after freeze-drying, improved technique” value (RBCs [3]; after small changes to the cell media composition and freeze-drying parameters) was “above 12%”, the “recovery after freeze-drying, initial experiments” value (RBCs [3]; initial experiments (data not shown)) was “less than 8%” and the “cell recovery rate (structurally intact RBCs) after freeze-drying/rehydration” value (RBCs [3]; without sonoporation, freeze-dried) was 0%.
